Assay results taken from patent publication US20240366577A1, “CONTROLLED LONG-TERM DRUG DELIVERY AND METHODS THEREOF” (THE JOHNS HOPKINS UNIVERSITY, priority 2021, published 2024).

Tests used:
VE-Cdh, aSMact, Cd34 = assay: qPCR of retrieved tumors: VE-Cdh, aSMact, Cd34; format: in vivo, BALB/c mice; conditions: crystals, compared to daily bolus; tumors at end of study
Procedure: To determine the anti-angiogenic efficacy of each sorafenib treatment group, qPCR gene expression analysis was performed on retrieved tumors at the conclusion of the study. In particular, analysis for levels of endothelial cell marker Cd31, vascular endothelial-cadherin (VE-Cdh), smooth muscle pericyte marker alpha Smooth Muscle actin (aSMact), and stem/progenitor cell marker Cd34 were conducted, as shown in FIG. 3F.
1 mL of TRIzol reagent (Cat#15596018, ThermoFisher) was added to 100 mg samples of tumor tissue and broken down with a power homogenizer (Polytron/VWR). Homogenized samples were incubated at room temperature for 5 min for complete nucleoprotein dissociation, then 0.2 ml of chloroform (Sigma) was added to each sample. Samples were shaken vigorously for 15 seconds and incubated at room temperature for 3 min before centrifuging at 12,000 g for 15 min at 4° C. The uppermost supernatant layer was pipetted into a 1.7 mL Eppendorf tube, with the remaining interphase and organic layer discarded. 0.5 mL of isopropanol (Sigma) was added to each sample, and then samples were incubated for 10 min. Samples were centrifuged at 12,000 g for 10 min at 4° C. […] Depending on size of resultant pellet, pellets were resuspended in 50-100 μL, and nucleic acid concentration was measured using a NanoDrop 2000 spectrophotometer (ThermoFisher). […]

4T1-luciferase tumors = assay: 4T1-luciferase tumor IVIS bioluminescence, co-injection with crystals; format: in vivo, BALB/c mice; conditions: 2 mg of 150-200 μm crystals co-injected with 4T1-luciferase cells; up to 20 days; vs PBS controls; p<0.05
Procedure: To determine long-term potential of tunable, slow-releasing crystal-formulated sorafenib, efficacy of a single injection of the injectable drug composition was measured in a syngeneic model of triple negative breast cancer (TNBC): 4T1 tumors grown orthotopically in the mammary fat pad of BALB/c mice. For in vivo testing, mice were anesthetized with inhaled isofluorane and inoculated with 4T1, also referred to as 4T1-Luciferase, Luc, cancer cells, injected into the right inguinal mammary fat pad, as shown in FIG. 3A. […] Tumor presence was quantified over time up to 20 days post injection in both cases based on measured luminescence in equivalent regions of interest (ROIs, white circles), depicted in FIG. 3C. […]
4T1 or 4T1-luc2 cells were trypsinized using 0.25% Trypsin-EDTA, then diluted with the appropriate complete culture media and spun in a centrifuge at 300 g for 5 min. […] Cells were counted with a Countess automated cell counter. […] Tumors were measured externally using a digital caliper, and volume was calculated (!″* (length * height) *−length * height). […]
4T1-Luc2 tumor-injected mice were dosed with RediJect D-Luciferin K+ salt 5 minutes prior to examination. […] Equivalent regions of interest (ROIs) were used for quantification of tumor groups.

SMILES: CNC(=O)c1cc(Oc2ccc(NC(=O)Nc3ccc(Cl)c(C(F)(F)F)c3)cc2)ccn1 [crystalline sorafenib, sorafenib]
- knockdown of VE-Cdh, aSMact and Cd34 (qPCR) (VE-Cdh, aSMact, Cd34): not as significant
- anti-tumor efficacy (tumor luminescence in ROIs) (4T1-luciferase tumors): significant anti-tumor efficacy
